Assays:
Format in all cases: in vivo
Anopheles stephensi [1] = experiment: 6 well plate test, knockdown after 1 hour and mortality after 24 and 48 hours
Experimental: The individual wells of six (6) well tissue culture plates were treated with […] of an ethanol solution containing a test compound at a defined concentration. Once the deposits were dry, ten non-blood fed adult female Anopheles stephensi (between two to five day old) were added to each well, and sustained with a 10% sucrose solution in a cotton wool plug. Assessment of the knockdown after 1 hour (Tables B1-B10), and mortality after 24 and 48 hours (Tables B1-B4) was carried out.
In case of multiple tests, the mean value is reported.

Aedes aegypti = experiment: 12 well plate knockdown test; details: 1 h, read-out: Aedes aegypti 1 hour % KD; for pest or weed control at 0.2 ppm: Rate 0.2 PPM; for pest or weed control at 2 ppm: Rate 2 PPM; for pest or weed control at 20 ppm: Rate 20 PPM; for pest or weed control at 200 ppm: Rate 200 PPM
Experimental: (§1) The individual wells of a twelve (12) well tissue culture plates were treated with 100 μl of an ethanol solution containing a test compound at a defined concentration. Once the deposits were dry, five non-blood fed adult female Aedes aegypti or Anopheles stephensi (between two to five day old) were added to each well, and sustained with a 10% sucrose solution in a cotton wool plug. Assessment of the knockdown after 1 hour was carried out. Where multiple replicates of a treatment have been undertaken, the mean of those replicates is reported.

Anopheles stephensi [2] = experiment: 12 well plate knockdown test; details: 1 h, read-out: Anopheles stephensi 1 hour % KD; for pest or weed control at 0.2 ppm: Rate 0.2 PPM; for pest or weed control at 2 ppm: Rate 2 PPM; for pest or weed control at 20 ppm: Rate 20 PPM; for pest or weed control at 200 ppm: Rate 200 PPM
Experimental: as §1

In the case of `CC1(C)[C@H](C(=O)O[C@H](C#N)c2cccc(Oc3ccccc3)c2)[C@@H]1/C=C(\Cl)C(F)(F)F` (racemic) [Lambda-cyhalothrin], the “knockdown after 1 hour, Alone” value (Anopheles stephensi [1]; Table B5, 0.025 ppm) is reported as 0, the “knockdown after 1 hour, Alone” value (Anopheles stephensi [1]; Table B5, 0.05 ppm) is reported as 0 and the “knockdown after 1 hour, Alone” value (Anopheles stephensi [1]; Table B5, 0.1 ppm) is reported as 0. The “knockdown after 1 hour, Alone” value (Anopheles stephensi [1]; Table B5, 0.2 ppm) was 40.

`CNC(=O)c1cc(Cl)cc(C)c1NC(=O)c1cc(Br)nn1-c1ncccc1Cl` [Chlorantraniliprole] was tested, and the “knockdown after 1 hour, Alone” value (Anopheles stephensi [1]; Table B9, 12.5 ppm) was 0, the “knockdown after 1 hour, Alone” value (Anopheles stephensi [1]; Table B9, 25 ppm) was 0 and the “knockdown after 1 hour, Alone” value (Anopheles stephensi [1]; Table B9, 50 ppm) was 0. For the same compound, the “knockdown after 1 hour, Alone” value (Anopheles stephensi [1]; Table B9, 100 ppm) was 20 and the “knockdown after 1 hour, Alone” value (Anopheles stephensi [1]; Table B9, 200 ppm) was 40.

`CNC(=O)c1cc(C#N)cc(C)c1NC(=O)c1cc(Br)nn1-c1ncccc1Cl` [Cyantraniliprole] was tested, and the “knockdown after 1 hour, Alone” value (Anopheles stephensi [1]; Table B8, 6.25 ppm) was 0, the “knockdown after 1 hour, Alone” value (Anopheles stephensi [1]; Table B8, 12.5 ppm) was 0 and the “knockdown after 1 hour, Alone” value (Anopheles stephensi [1]; Table B8, 25 ppm) was 0. For the same compound, the “knockdown after 1 hour, Alone” value (Anopheles stephensi [1]; Table B8, 50 ppm) was 0, the “knockdown after 1 hour, Alone” value (Anopheles stephensi [1]; Table B8, 100 ppm) was 0 and the “knockdown after 1 hour, Alone” value (Anopheles stephensi [1]; Table B8, 200 ppm) was 20.

With `O=C(NCc1ccc(Cl)cc1)c1cnccc1C(F)(F)F` [I.2] the pest or weed control at 0.2 ppm (Aedes aegypti) was 100%, the pest or weed control at 2 ppm (Aedes aegypti) was 100% and the pest or weed control at 20 ppm (Aedes aegypti) was 100%. The pest or weed control at 200 ppm (Aedes aegypti) was 100%, the pest or weed control at 0.2 ppm (Anopheles stephensi [2]) was 0% and the pest or weed control at 2 ppm (Anopheles stephensi [2]) was 60%. For the same compound, the pest or weed control at 20 ppm (Anopheles stephensi [2]) was 80% and the pest or weed control at 200 ppm (Anopheles stephensi [2]) was 100%.

Work on `CN(C)C(=O)c1cnccc1C(F)(F)F` [I.4] yielded a pest or weed control at 0.2 ppm (Aedes aegypti) of 100%, a pest or weed control at 2 ppm (Aedes aegypti) of 100% and a pest or weed control at 20 ppm (Aedes aegypti) of 100%. For the same compound, the pest or weed control at 200 ppm (Aedes aegypti) was 100%, the pest or weed control at 0.2 ppm (Anopheles stephensi [2]) was 40% and the pest or weed control at 2 ppm (Anopheles stephensi [2]) was 100%. For the same compound, the pest or weed control at 20 ppm (Anopheles stephensi [2]) was 100% and the pest or weed control at 200 ppm (Anopheles stephensi [2]) was 100%.

`O=c1nc(-c2cnccc2C(F)(F)F)os1` [I.5] was tested, and the pest or weed control at 0.2 ppm (Aedes aegypti) was 100%, the pest or weed control at 2 ppm (Aedes aegypti) was 100% and the pest or weed control at 20 ppm (Aedes aegypti) was 100%. It also gave a pest or weed control at 200 ppm (Aedes aegypti) of 100%, a pest or weed control at 0.2 ppm (Anopheles stephensi [2]) of 60% and a pest or weed control at 2 ppm (Anopheles stephensi [2]) of 100%. For the same compound, the pest or weed control at 20 ppm (Anopheles stephensi [2]) was 100% and the pest or weed control at 200 ppm (Anopheles stephensi [2]) was 100%.

For `CN(C)CNC(=O)c1cnccc1C(F)(F)F` [I.6], the pest or weed control at 0.2 ppm (Aedes aegypti) was 100%, the pest or weed control at 2 ppm (Aedes aegypti) was 100% and the pest or weed control at 20 ppm (Aedes aegypti) was 100%. For the same compound, the pest or weed control at 200 ppm (Aedes aegypti) was 100%, the pest or weed control at 0.2 ppm (Anopheles stephensi [2]) was 0% and the pest or weed control at 2 ppm (Anopheles stephensi [2]) was 20%. For the same compound, the pest or weed control at 20 ppm (Anopheles stephensi [2]) was 40% and the pest or weed control at 200 ppm (Anopheles stephensi [2]) was 40%.

`CC(C)n1nc(-c2cnccc2C(F)(F)F)oc1=O` [I.7] showed a pest or weed control at 0.2 ppm (Aedes aegypti) of 100%, a pest or weed control at 2 ppm (Aedes aegypti) of 100% and a pest or weed control at 20 ppm (Aedes aegypti) of 100%. For the same compound, the pest or weed control at 200 ppm (Aedes aegypti) was 100%, the pest or weed control at 0.2 ppm (Anopheles stephensi [2]) was 0% and the pest or weed control at 2 ppm (Anopheles stephensi [2]) was 0%. It also gave a pest or weed control at 20 ppm (Anopheles stephensi [2]) of 0% and a pest or weed control at 200 ppm (Anopheles stephensi [2]) of 20%.

`CN(OC(=O)OCc1ccccc1)C(=O)c1cnccc1C(F)(F)F` [I.8] gave a pest or weed control at 0.2 ppm (Aedes aegypti) of 100%, a pest or weed control at 2 ppm (Aedes aegypti) of 100% and a pest or weed control at 20 ppm (Aedes aegypti) of 100%. The pest or weed control at 200 ppm (Aedes aegypti) was 100%, the pest or weed control at 0.2 ppm (Anopheles stephensi [2]) was 60% and the pest or weed control at 2 ppm (Anopheles stephensi [2]) was 100%. The pest or weed control at 20 ppm (Anopheles stephensi [2]) was 100% and the pest or weed control at 200 ppm (Anopheles stephensi [2]) was 100%.

For `CCOC(=O)ON(C)C(=O)c1cnccc1C(F)(F)F` [I.9], the pest or weed control at 0.2 ppm (Aedes aegypti) was 100%, the pest or weed control at 2 ppm (Aedes aegypti) was 100% and the pest or weed control at 20 ppm (Aedes aegypti) was 100%. The pest or weed control at 200 ppm (Aedes aegypti) was 100%, the pest or weed control at 0.2 ppm (Anopheles stephensi [2]) was 20% and the pest or weed control at 2 ppm (Anopheles stephensi [2]) was 100%. The pest or weed control at 20 ppm (Anopheles stephensi [2]) was 100% and the pest or weed control at 200 ppm (Anopheles stephensi [2]) was 100%.

From patent US20170094972A1, “Compounds and Compositions Having Knock-Down Activity Against Insect Pests” (priority 2015, published 2017)
